Laboratory results as given in US20060013866A1, “Transdermal drug delivery formulations with optimal amounts of vasodilators therein” (priority 2004, published 2006).
Each block holds one compound with its values, some of them ahead of it.

Key:
Format in all cases: in vivo
[1] = Topical ibuprofen vehicle with tolazoline applied to rabbits, ibuprofen in plasma over three hours; details: 150 mg sodium salt-ibuprofen
Procedure: (§1) Test formulations containing 15% ibuprofen- sodium salt, 5% oleic acid, 10% menthol, 5% propylene glycol, 10% dimethylacetamide, 1% decylmethylsulfoxide, 1% u-care, varying amounts of tolazoline ranging from 0-0.1%, and 52.9-53% deionized water were each blended in a beaker with a mechanical mixer and heated to 40° C. for 30 minutes until clear, then cooled to room temperature.
(§2) 150 mg of sodium salt-ibuprofen was formulated with the above lipid-based vehicle formulatiosn containing increasing amounts of the vasodilator tolazoline. The Ibuprofen vehicle was topically applied to rabbits and blood samples were taken over a three-hour period. Plasma was prepared and analyzed for the amount of ibuprofen present in the blood. The data represents the integrated value of ibuprofen concentration in the blood for the three hour time period for each concentration of tolazoline.

[2] = Topical ibuprofen vehicle with tocopherol nicotinate applied to rabbits, ibuprofen in plasma over three hours
Procedure: as §1, with “ibuprofen-sodium” for “ibuprofen- sodium”, “tocopherol nicotinate in the range of 0-1%,” for “tolazoline ranging from 0-0.1%,”, “52-53%” for “52.9-53%”
as §2, with “with a 1-gram dose of” for “with”, “formulations” for “formulatiosn”, “containing the” for “containing”, “tocopherol nicotinate.” for “tolazoline.”

[3] = Topical ibuprofen vehicle with papaverine applied to rabbits, ibuprofen in plasma over three hours; details: 150 mg sodium salt-ibuprofen
Procedure: as §1, with “ibuprofen-sodium” for “ibuprofen- sodium”, “papaverine” for “tolazoline”, “0-1%,” for “0-0.1%,”, “52-53%” for “52.9-53%”
as §2, with “papaverine.” for “tolazoline.”

[4] = Maximal blood flow stimulated by vasodilator, laser Doppler perfusion imager
Source text: The present invention also relates to the methods needed to obtain the optimal transdermal delivery of drugs as a function of enhanced delivery resulting from the presence of vasodilator chemicals relates to the topical application of therapeutic or diagnostic agents for the systemic or localized distribution of therapeutic or diagnostic agents for the purpose of treating or detecting diseases and medical conditions. The topically applied agents may be administered at different locations on the human body to achieve access to the circulatory system. The inclusion of chemical vasodilator facilitates the transportation of the therapeutic and diagnostic agents. Chemical vasodilators act through a mechanism-specific basis resulting in a stimulation or inhibition of the uptake of the therapeutic or diagnostic agents. […] Transdermal delivery of the drug molecule as a function of the vasodilator is evaluated in a living suitable animal model or human test subject, topically applying the test formulations, which contain varying amounts of vasodilator. […] Effective transdermal drug delivery is measured by determining the amount of drug present in the blood plasma as a function of time following the single application. […]
Maximal blood flow stimulated by the vasodilator tolazoline was measured using a laser Doppler perfusion imager.

integrated value of ibuprofen concentration in the blood (0-3 hr) ([1]; Control (no tolazoline)): 1030 ng·h/mL
integrated value of ibuprofen concentration in the blood (0-3 hr) ([1]; tolazoline 0.0010%): 3900 ng·h/mL
integrated value of ibuprofen concentration in the blood (0-3 hr) ([1]; tolazoline 0.0050%): 5240 ng·h/mL
integrated value of ibuprofen concentration in the blood (0-3 hr) ([1]; tolazoline 0.0100%): 5660 ng·h/mL
integrated value of ibuprofen concentration in the blood (0-3 hr) ([1]; tolazoline 0.0500%): 3530 ng·h/mL
integrated value of ibuprofen concentration in the blood (0-3 hr) ([1]; tolazoline 0.100%): 4530 ng·h/mL
integrated value of ibuprofen concentration in the blood (0-3 hr) ([2]; 150 mg sodium salt-ibuprofen in 1-gram dose, Control (no tocopherol nicotinate)): 1030 ng·h/mL
integrated value of ibuprofen concentration in the blood (0-3 hr) ([2]; 150 mg sodium salt-ibuprofen, tocopherol nicotinate 0.00010%): 3980 ng·h/mL
integrated value of ibuprofen concentration in the blood (0-3 hr) ([2]; 150 mg sodium salt-ibuprofen, tocopherol nicotinate 0.00025%): 9480 ng·h/mL
integrated value of ibuprofen concentration in the blood (0-3 hr) ([2]; 150 mg sodium salt-ibuprofen, tocopherol nicotinate 0.00050%): 3120 ng·h/mL
integrated value of ibuprofen concentration in the blood (0-3 hr) ([2]; 150 mg sodium salt-ibuprofen, tocopherol nicotinate 0.0010%): 5080 ng·h/mL
integrated value of ibuprofen concentration in the blood (0-3 hr) ([2]; 150 mg sodium salt-ibuprofen, tocopherol nicotinate 0.0100%): 5840 ng·h/mL
integrated value of ibuprofen concentration in the blood (0-3 hr) ([2]; 150 mg sodium salt-ibuprofen, tocopherol nicotinate 0.100%): 4300 ng·h/mL
integrated value of ibuprofen concentration in the blood (0-3 hr) ([2]; 150 mg sodium salt-ibuprofen, tocopherol nicotinate 1.000%): 4400 ng·h/mL
integrated value of ibuprofen concentration in the blood (0-3 hr) ([3]; Control (no papaverine)): 1030 ng·h/mL
integrated value of ibuprofen concentration in the blood (0-3 hr) ([3]; papaverine 0.00010%): 5120 ng·h/mL
integrated value of ibuprofen concentration in the blood (0-3 hr) ([3]; papaverine 0.00025%): 4470 ng·h/mL
integrated value of ibuprofen concentration in the blood (0-3 hr) ([3]; papaverine 0.00050%): 8370 ng·h/mL
integrated value of ibuprofen concentration in the blood (0-3 hr) ([3]; papaverine 0.0010%): 7620 ng·h/mL
integrated value of ibuprofen concentration in the blood (0-3 hr) ([3]; papaverine 0.0100%): 5720 ng·h/mL
integrated value of ibuprofen concentration in the blood (0-3 hr) ([3]; papaverine 0.100%): 4230 ng·h/mL
integrated value of ibuprofen concentration in the blood (0-3 hr) ([3]; papaverine 1.000%): 6160 ng·h/mL
Compound: CC(C)Cc1ccc(C(C)C(=O)O)cc1 (centres unmarked) [Ibuprofen, ibuprofen]

Compound: c1ccc(CC2=NCCN2)cc1 [tolazoline]
concentration of tolazoline at which the maximum blood flow was achieved [4]: 0.5%
